From patent publication US20230406853A1, “COVALENT CDK2-BINDING COMPOUNDS FOR THERAPEUTIC PURPOSES” (Umbra Therapeutics, Inc., priority 2021, published 2023)

biological target: CycE1-CDK2 (Homo sapiens, UniProt P24941); test: Cdk2 Enzymatic TR-FRET Assay; assay type: biochemical; conditions: CDK2/CycE 5 nM, ATP 100 μM, 60 minutes pre-incubation with compound; read-out: CDK2 Kinase
Description: A TR-FRET system was used to detect CycE1-CDK2 kinase activity. The assay used a Europium-labeled anti-phospho-Ser/Thr antibody and ULight™-labeled peptide substrate (eIF4E-binding protein 1). When CycE1-CDK2 phosphorylates the peptide the phosphorylated Thr is recognized by the Europium-labeled anti-phospho-Ser/Thr antibody. Upon excitation of the Europium donor fluorophore at 337 nm, energy is transferred to the ULight™ acceptor dye on the substrate, resulting in the emission of light at 665 nm. The fluorescent signal is proportional to the level of ULight™ peptide phosphorylation and to the kinase activity.
The stock solution was prepared as follows: • 1× Reaction buffer: 50 mM HEPES pH 7.5, 10 mM MgCl2, 0.5 mM TCEP, 0.01% Tween®20, 1 mM EGTA, 0.001% fatty acid free (faf)-BSA; • 1× Detection buffer: equilibrate the Detection buffer at RT for at least 20 minutes then dilute 10-fold the stock in water; • 4×ENZYME mix: CDK2/CycE enzyme (5 nM final concentration in kinase reaction) in 1× Reaction buffer; • 4×SUBSTRATE mix: 4E-BP substrate (50 nM final concentration in kinase reaction)+ATP (100 μM final concentration in kinase reaction) in 1× Reaction buffer • 2×STOP/DETECTION mix: EDTA (10 mM final concentration in assay)+Anti-Phosphate antibody (0.5 nM final concentration in assay) in 1× Detection buffer • Neutral Control: Assay with no inhibition (MAX activity) • Inhibitor Control: Assay with IC100 (1 mM) reference inhibitor JNJ7706621 (MIN activity)
The assay was assembled directly in a white, small volume, Proxiplate (PerkinElmer) as follows: • Step 1: Charge compounds=5 μL/well • Step 2: Charge kinase=2.5 μL/well→total volume 7.5 μL/well • The plate is sealed and incubated at room temperature for 60 minutes • Step 3: Substrate mix (substrate/ATP)=2.5 μL/well→total enzymatic reaction volume 10 μL/well • The plate is sealed and incubated at room temperature for 60 minutes • Step 4: Stop/Detection mix (EDTA/antibody)=10 μL/well→total volume 20 μL/well • The plate is sealed and incubated at room temperature for at least 2 hours and fluorescence signal is measured at PHERAstar FSX The reading conditions are the followings for PHERAstar FSX:
A 384-microtiter plate (MTP), containing 20 test compounds in eight-points dose response, is prepared. Test compounds dose response curves are prepared in automation in 100% DMSO in a CyBio Felix, starting from a DMSO stock solution of 10 mM. To obtain the eight-points dose-response curve, a serial dilution protocol in 100% DMSO is performed for each compound by using a 96 MTP as a support. 20 μL of the 10 mM stock solutions are transferred in row A of a 96 MTP U-bottom from column 2 to 11 for a total of 10 compounds/plate. Starting from the 10 mM stock, serial dilutions across rows, from A to B and proceeding up to H, are performed for each compound by transferring 6.3 μL of the more concentrated fluid in 13.7 μL of 100% DMSO.
In order to generate duplicate data points each well of the 96 MTP is then replicated into two wells of a 384 MTP plate for each compound and for each concentration to be tested. The 384 MTP compound plate is used as source plate in a “mother to child” process with a CyBi®-Well dispenser in which 1 μL of compound is moved into a destination plate pre-filled with 24 μL of reaction buffer, obtaining 2× concentrated compound solution.
Genedata Screener® 17.0 was used for data analysis. In the implemented workflow, the following calculations were conducted: • Calculate the Response Value (KRV) from the respective original data as follow:
HTRF Assay: Ratio=665 nm_FRET/620 nm_Ab*10000 • Calculate the % Inhibition of the compound (Inhibitory effect). KRV was normalized versus Neutral Controls and Inhibitor Controls (JNJ7706621) to obtain Activity % according to the following formula:
Activity %=−100*(x−<Neutral Control>)/(<Inhibitor Control>−<Neutral Control>) […]

Row | SMILES | IC50 [µM]
1 | CS(=O)(=O)N1CCC(Nc2ncc3cc(C(F)F)c(=O)n(CCOC(=O)c4ccc(S(=O)(=O)n5cncn5)cc4)c3n2)CC1 [Compound 226] | < 10
2 | CS(=O)(=O)N1CCC(Nc2ncc3cc(C(F)F)c(=O)n(CCOC(=O)c4ccc(S(=O)(=O)n5cnc(C6CC6)n5)cc4)c3n2)CC1 [Compound 227] | < 10
3 | CS(=O)(=O)N1CCC(Nc2ncc3ccc(=O)n(CC(=O)Nc4ccc(S(=O)(=O)n5cncn5)cc4)c3n2)CC1 [Compound 228] | < 10
4 | CS(=O)(=O)N1CCC(Nc2ncc3ccc(=O)n(CC(=O)Nc4ccc(S(=O)(=O)n5cnc(-c6ccccc6)n5)cc4)c3n2)CC1 [Compound 229] | < 10
5 | CS(=O)(=O)N1CCC(Nc2ncc3ccc(=O)n(CCOCCCS(=O)(=O)n4cnc(-c5ccccc5)n4)c3n2)CC1 [Compound 230] | 10 to 100
6 | CS(=O)(=O)N1CCC(Nc2ncc3ccc(=O)n(CCOCCCS(=O)(=O)n4cncn4)c3n2)CC1 [Compound 231] | < 10
7 | CS(=O)(=O)N1CCC(Nc2ncc3ccc(=O)n(CC(=O)Nc4ccc(S(=O)(=O)n5cnc(C6CC6)n5)cc4)c3n2)CC1 [Compound 232] | < 10
8 | CS(=O)(=O)N1CCC(Nc2ncc3ccc(=O)n(CCOCCCS(=O)(=O)n4cnc(C5CC5)n4)c3n2)CC1 [Compound 233] | < 10
9 | CS(=O)(=O)N1CCC(Nc2ncc3cc(C(F)F)c(=O)n(CC(=O)Nc4ccc(S(=O)(=O)n5cnc(C6CC6)n5)cc4)c3n2)CC1 [Compound 234] | < 10
10 | CS(=O)(=O)N1CCC(Nc2ncc3ccc(=O)n(CC(=O)NCc4ccc(S(=O)(=O)n5cnc(C6CC6)n5)cc4)c3n2)CC1 [Compound 235] | < 10
11 | CS(=O)(=O)N1CCC(Nc2ncc3ccc(=O)n(CC(=O)NCc4ccc(S(=O)(=O)n5cncn5)cc4)c3n2)CC1 [Compound 236] | < 10
12 | Cc1cc(NC(=O)Cn2c(=O)ccc3cnc(NC4CCN(S(C)(=O)=O)CC4)nc32)ccc1S(=O)(=O)n1cncn1 [Compound 237] | < 10
13 | Cc1cc(NC(=O)Cn2c(=O)ccc3cnc(NC4CCN(S(C)(=O)=O)CC4)nc32)ccc1S(=O)(=O)n1cnc(-c2ccccc2)n1 [Compound 238] | < 10
14 | Cc1cc(NC(=O)Cn2c(=O)ccc3cnc(NC4CCN(S(C)(=O)=O)CC4)nc32)ccc1S(=O)(=O)n1cnc(C2CC2)n1 [Compound 239] | < 10
15 | CS(=O)(=O)N1CCC(Nc2ncc3ccc(=O)n(CC(=O)NCc4ccc(S(=O)(=O)n5cnc(-c6ccccc6)n5)cc4)c3n2)CC1 [Compound 240] | < 10
16 | CS(=O)(=O)N1CCC(Nc2ncc3ccc(=O)n(Cc4ccc(S(=O)(=O)n5cncn5)cc4)c3n2)CC1 [Compound 241] | < 10
17 | CS(=O)(=O)N1CCC(Nc2ncc3ccc(=O)n(Cc4ccc(S(=O)(=O)n5cnc(-c6ccccc6)n5)cc4)c3n2)CC1 [Compound 242] | < 10
18 | CS(=O)(=O)N1CCC(Nc2ncc3ccc(=O)n(Cc4ccc(S(=O)(=O)n5cnc(C6CC6)n5)cc4)c3n2)CC1 [Compound 243] | < 10
19 | CS(=O)(=O)N1CCC(Nc2ncc3ccc(=O)n(CCCS(=O)(=O)n4cncn4)c3n2)CC1 [Compound 244] | < 10
20 | CS(=O)(=O)N1CCC(Nc2ncc3ccc(=O)n(CCCS(=O)(=O)n4cnc(C5CC5)n4)c3n2)CC1 [Compound 245] | < 10
21 | CS(=O)(=O)N1CCC(Nc2ncc3ccc(=O)n(CCCS(=O)(=O)n4cnc(-c5ccccc5)n4)c3n2)CC1 [Compound 246] | < 10
22 | CNc1ncc2ccc(=O)n(CC(=O)Nc3ccc(S(=O)(=O)n4cncn4)cc3)c2n1 [Compound 247] | < 10
23 | CNc1ncc2ccc(=O)n(CC(=O)Nc3ccc(S(=O)(=O)n4cnc(C5CC5)n4)cc3)c2n1 [Compound 248] | < 10
24 | CNc1ncc2ccc(=O)n(CC(=O)Nc3ccc(S(=O)(=O)n4cnc(-c5ccccc5)n4)cc3)c2n1 [Compound 249] | > 200

Row | SMILES | IC50 [µM]
25 | Cc1cc(S(=O)(=O)n2cncn2)ccc1NC(=O)Cn1c(=O)ccc2cnc(NC3CCN(S(C)(=O)=O)CC3)nc21 [Compound 250] | < 10
26 | Cc1cc(S(=O)(=O)n2cnc(C3CC3)n2)ccc1NC(=O)Cn1c(=O)ccc2cnc(NC3CCN(S(C)(=O)=O)CC3)nc21 [Compound 251] | < 10
27 | Cc1cc(S(=O)(=O)n2cnc(-c3ccccc3)n2)ccc1NC(=O)Cn1c(=O)ccc2cnc(NC3CCN(S(C)(=O)=O)CC3)nc21 [Compound 252] | < 10
28 | Cc1ncn(S(=O)(=O)c2ccc(NC(=O)Cn3c(=O)ccc4cnc(NC5CCN(S(C)(=O)=O)CC5)nc43)cc2)n1 [Compound 253] | < 10
29 | CC(C(=O)Nc1ccc(S(=O)(=O)n2cnc(C3CC3)n2)cc1)n1c(=O)ccc2cnc(NC3CCN(S(C)(=O)=O)CC3)nc21 (centres unmarked) [Compound 254] | < 10
30 | CC(C)c1ncn(S(=O)(=O)c2ccc(NC(=O)Cn3c(=O)ccc4cnc(NC5CCN(S(C)(=O)=O)CC5)nc43)cc2)n1 [Compound 255] | < 10
31 | CCOCc1cc2cnc(NC3CCN(S(C)(=O)=O)CC3)nc2n(CCCS(=O)(=O)n2cnc(-c3ccccc3)n2)c1=O [Compound 256] | > 200
32 | O=c1ccc2cnc(NC3CCOCC3)nc2n1CCCS(=O)(=O)n1cnc(C2CC2)n1 [Compound 257] | < 10
33 | CS(=O)(=O)N1CCC(Nc2ncc3ccc(=O)n(CC(=O)Nc4ccc(S(=O)(=O)n5cnc(C6CCC6)n5)cc4)c3n2)CC1 [Compound 258] | > 200
34 | CS(=O)(=O)N1CCC(Nc2ncc3ccc(=O)n(CC(=O)Nc4ccc(S(=O)(=O)n5cnc(CO)n5)cc4)c3n2)CC1 [Compound 259] | < 10
35 | CCOC(=O)Cc1ncn(S(=O)(=O)c2ccc(NC(=O)Cn3c(=O)ccc4cnc(NC5CCN(S(C)(=O)=O)CC5)nc43)cc2)n1 [Compound 260] | < 10
36 | CCOCc1cc2cnc(NC3CCN(S(C)(=O)=O)CC3)nc2n(CCCS(=O)(=O)n2cnc(C3CC3)n2)c1=O [Compound 261] | 10 to 100
37 | CC(C)(C)c1ncn(S(=O)(=O)c2ccc(NC(=O)Cn3c(=O)ccc4cnc(NC5CCN(S(C)(=O)=O)CC5)nc43)cc2)n1 [Compound 262] | > 200
38 | O=c1ccc2cnc(NC3CC(F)(F)C3)nc2n1CCCS(=O)(=O)n1cnc(C2CC2)n1 [Compound 263] | < 10
39 | CS(=O)(=O)N1CCC(Nc2ncc3ccc(=O)n(CCS(=O)(=O)n4cnc(C5CC5)n4)c3n2)CC1 [Compound 264] | < 10
40 | CCOCc1cc2cnc(NC3CCN(S(C)(=O)=O)CC3)nc2n(CCCS(=O)(=O)n2cncn2)c1=O [Compound 265] | 10 to 100
41 | O=c1ccc2cnc(NCC3CC3)nc2n1CCCS(=O)(=O)n1cnc(C2CC2)n1 [Compound 266] | 10 to 100
42 | O=c1ccc2cnc(NC3CCOC3)nc2n1CCCS(=O)(=O)n1cnc(C2CC2)n1 (centres unmarked) [Compound 267] | 10 to 100
43 | O=c1ccc2cnc(NCC3CCCCC3)nc2n1CCCS(=O)(=O)n1cnc(C2CC2)n1 [Compound 268] | > 200
44 | CC(C)CNc1ncc2ccc(=O)n(CCCS(=O)(=O)n3cnc(C4CC4)n3)c2n1 [Compound 269] | < 10
45 | O=c1ccc2cnc(NC3CCCCCC3)nc2n1CCCS(=O)(=O)n1cnc(C2CC2)n1 [Compound 270] | < 10
46 | O=c1ccc2cnc(NC3CC3)nc2n1CCCS(=O)(=O)n1cnc(C2CC2)n1 [Compound 271] | < 10
47 | CC(=O)Nc1ncn(S(=O)(=O)c2ccc(NC(=O)Cn3c(=O)ccc4cnc(NC5CCN(S(C)(=O)=O)CC5)nc43)cc2)n1 [Compound 272] | < 10
